# Results: US11351142B2, “Composition and method for treating neuronal ceroid lipofuscinosis” (Rush University Medical Center, priority 2012, dated 2022)
# Experiments:
# [1] = test system: TPP1; test: Immunofluorescence for TPP1 in human primary astrocytes; assay type: cell-based; settings: 25 μM gemfibrozil and 10 μM fenofibrate, 24 hrs
# Experimental: (§1) Following four 15 minute washes with filtered PBS, cells were incubated for 4-5 min with 4′, 6-diamidino-2-phenylindole (DAPI, 1:10,000; Sigma).
# [2] = test system: TPP1; test: Western blot and densitometric analysis of TPP1 in mouse primary astrocytes; assay type: cell-based
# Experimental: Astroglia were isolated from mixed glial cultures as described (17,18) according to the procedure of Giulian and Baker (19). Briefly, on day 9, the mixed glial cultures were washed three times with Dulbecco's modified Eagle's medium/F-12 and subjected to shaking at 240 rpm for 2 h at 37° C. on a rotary shaker to remove microglia. After 2 days, the shaking was repeated for 24 h for the removal of oligodendroglia and to ensure the complete removal of all nonastroglial cells. The attached cells were seeded onto new plates for further studies.
# Western blotting was conducted as described earlier (27,28) with modifications. Briefly, cells were scraped in double-distilled H20 and sodium dodecyl sulfate (SDS), electrophoresed on NuPAGE® Novex® 4-12% Bis-Tris gels (Invitrogen) and proteins transferred onto a nitrocellulose membrane (Bio-Rad) using the Thermo-Pierce Fast Semi-Dry Blotter. The membrane was then washed for 15 min in TBS plus Tween 20 (TBST) and blocked for 1 hr in TBST containing BSA. Next, membranes were incubated overnight at 4° C. under shaking conditions with the following 1° antibodies; TPP1 (1:250, Santa Cruz), β-actin (1:800; Abcam, Cambridge, Mass. The next day, membranes were washed in TBST for 1 hr, incubated in 2° antibodies against 1° antibody hosts (all 1:10,000; Jackson ImmunoResearch) for 1 hr at room temperature, washed for one more hour and visualized under the Odyssey® Infrared Imaging System (Li-COR, Lincoln, Nebr.).
# Protein blots were analyzed using ImageJ (NIH, Bethesda, Md.) and bands were normalized to their respective β-actin loading controls. Data are representative of the average fold change with respect to control for three independent experiments.
# [3] = test system: lysosomal genes; test: Quantitative real-time PCR for lysosomal genes in mouse astrocytes; assay type: cell-based; settings: 25 μM gemfibrozil, different time points, serum free
# Experimental: (FIG. 13A) Quantitative real-time PCR for lysosomal genes in mouse astrocytes treated with 25 μM gemfibrozil for different time points under serum free conditions. […] (FIG. 13B) RT-PCR for lysosomal genes in human astrocytes treated under same condition. […] Results represent 3 independent experiments.
# [4] = test system: CLN2 (−/−) mouse; test: Survival (Kaplan-Meier) of CLN2 (−/−) mice; assay type: in vivo; settings: oral 7.5 mg/kg body weight/day from 4 weeks of age
# Excerpt: Treatment was started from 4 weeks of age for all groups. Methyl cellulose was used as vehicle. Top panel: Schematic representation of experiments performed. Bottom panel: Kaplan-Meier plot for percentage survival of treated vs. vehicle or untreated animals.
# [5] = test system: TPP1; test: TPP1 immunofluorescence of brain sections after oral gemfibrozil in WT, PPARα−/− and PPARβ−/− mice; assay type: in vivo, mouse; settings: oral 7.5 mg/kg body wt/day, 21 days
# Excerpt: After 21 days of treatment, mice were sacrificed and their brains fixed, embedded, and processed. Sections were made from different brain regions and for immunofluorescence staining on fresh frozen sections, anti-mouse TPP1 (1:200), goat anti mouse GFAP (1:100) were used. The samples were mounted and observed under Olympus BX41 fluorescence microscope (26).
# Once we confirmed the involvement of PPARα in the fibrate mediated upregulation of TPP1 protein, we further checked whether the same results could be replicated in in vivo settings. WT, PPARα^−/− and PPARβ^−/− mice from same background were treated orally for 21 days with 7.5 mg/kg body wt/day gemfibrozil dissolved in 0.1% methylcellulose, which was also used as vehicle. At the end of the treatment, the mice were killed and different regions of their brain, viz. Substantia nigra pars compacta, cortex, hippocampus, and dentate gyrus were sectioned, and immunofluorescence was performed for the presence of TPP1.
# [6] = target: T1, PPARα/RXRα heterodimer (Mus musculus, UniProt P23204+P28700); test: Co-immunoprecipitation of PPARα and RXRα from nuclear extract of mouse astrocytes; assay type: cell-based; settings: gemfibrozil (10 μM) and RA (0.5 μM) alone and in combination, 6 hrs
# T1 construct: endogenous in cells; host or cells: mouse primary astrocytes (nuclear extract)
# T1 sequence (P23204 1-468): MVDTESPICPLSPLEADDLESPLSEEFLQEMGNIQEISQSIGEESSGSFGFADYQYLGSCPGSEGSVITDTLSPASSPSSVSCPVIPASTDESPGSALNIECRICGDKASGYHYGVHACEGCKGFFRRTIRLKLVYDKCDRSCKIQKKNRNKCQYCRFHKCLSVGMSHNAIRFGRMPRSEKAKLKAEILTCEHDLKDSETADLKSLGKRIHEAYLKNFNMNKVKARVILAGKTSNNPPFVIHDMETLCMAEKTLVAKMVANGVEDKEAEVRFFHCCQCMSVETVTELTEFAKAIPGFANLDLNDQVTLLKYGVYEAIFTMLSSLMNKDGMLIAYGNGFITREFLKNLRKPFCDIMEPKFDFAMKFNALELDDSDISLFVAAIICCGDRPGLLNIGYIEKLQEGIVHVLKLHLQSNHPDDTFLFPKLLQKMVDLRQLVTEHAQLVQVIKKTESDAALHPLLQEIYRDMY
# T1 sequence (P28700 1-467): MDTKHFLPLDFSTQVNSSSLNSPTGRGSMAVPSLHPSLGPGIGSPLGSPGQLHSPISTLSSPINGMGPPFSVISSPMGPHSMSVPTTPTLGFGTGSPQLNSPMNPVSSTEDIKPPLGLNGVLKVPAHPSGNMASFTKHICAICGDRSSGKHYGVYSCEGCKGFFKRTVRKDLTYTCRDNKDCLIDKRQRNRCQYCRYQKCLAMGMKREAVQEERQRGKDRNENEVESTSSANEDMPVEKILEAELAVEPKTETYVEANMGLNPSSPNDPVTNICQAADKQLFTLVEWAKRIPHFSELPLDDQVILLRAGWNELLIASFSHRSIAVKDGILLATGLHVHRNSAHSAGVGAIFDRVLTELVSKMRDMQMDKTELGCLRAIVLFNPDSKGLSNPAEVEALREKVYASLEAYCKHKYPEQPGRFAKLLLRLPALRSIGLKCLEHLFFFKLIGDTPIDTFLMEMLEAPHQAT
# Experimental: After treatment, cells were washed with PBS, scraped into 1.5 mL tubes and centrifuged in 4° C. for 5 min at 500 rpm. The supernatant was aspirated and the pellet was resuspended in a membrane lysis buffer comprised of (4-(2-hydroxyethyl)-1-piperazineethanesulfonic acid) (HEPES, pH 8.0), MgCl2, KCl, dithiothreitol (DTT) and protease/phosphatase inhibitors, vortexed and centrifuged in 4° C. at 15,000 rpm for 3 minutes. Again, the supernatant was aspirated and the pellet was resuspended in a high salt, nuclear envelope lysis buffer comprised of HEPES (pH 8.0), MgCl2, glycerol, NaCl, ethylenediaminetetraacetic acid (EDTA), DTT and protease/phosphatase inhibitors, rotated vigorously in 4° C. for 30 min and centrifuged in 4° C. at 15,000 rpm for 15 minutes. The resultant nuclear pellet was resuspended in IP buffer and a fraction was kept separately as lysate. The remaining nuclear extract was then precleared with 25 ul of protein A-agarose (50%, v/v). The supernatants were immunoprecipitated with 5 ug of anti-RXRα or anti-PPARα or normal IgG (Santa Cruz Biotechnology, Inc.) overnight at 4 C, followed by incubation with protein A-agarose for 4 hrs at 4° C. Protein A-agarose-antigen-antibody complexes were collected by centrifugation at 12,000 rpm for 60 s at 4° C. […]
# [7] = test system: TPP1; test: Immunofluorescence for TPP1 in mouse primary neurons; assay type: cell-based; settings: mouse neurons from cortex, hippocampus, and striatum; 25 μM gemfibrozil and 10 μM fenofibrate, 24 hrs
# Experimental: as §1
structure (smiles),measurement,setting,value
Cc1ccc(C)c(OCCCC(C)(C)C(=O)O)c1 [gemfibrozil],level of TPP1 protein (immunofluorescence),[1],considerable increase
same,"TPP1 levels (immunoblot, densitometric analysis)","[2]; PPARα−/− astrocytes, 24 hrs",no significant increase
same,"TPP1 levels (Western blot, densitometric analysis)","[2]; RXRα siRNA transfected astrocytes, gemfibrozil (10 μM), RA (0.5 μM) alone and in combination",almost no enhancement
same,lysosomal genes mRNA (quantitative real-time PCR),[3],upregulation
same,"life span (percentage survival, Kaplan-Meier)",[4],prolongs the life span
same,TPP1 in the dentate gyrus and CA1 region of the hippocampus (mostly non-neuronal cells),[5]; PPARβ−/− mice,increased
same,level of TPP1 in GFAP-positive astrocytes and tyrosine hydroxylase-positive neurons in the substantia nigra,[5]; PPARβ−/− mice,increased
same,level of TPP1 in GFAP-positive cortical astrocytes and NeuN-positive cortical neurons,[5]; PPARβ−/− mice,markedly increased
same,TPP1 in the dentate gyrus and CA1 region of the hippocampus (mostly non-neuronal cells),[5]; WT mice,increased
same,level of TPP1 in GFAP-positive astrocytes and tyrosine hydroxylase-positive neurons in the substantia nigra,[5]; WT mice,increased
same,level of TPP1 in GFAP-positive cortical astrocytes and NeuN-positive cortical neurons,[5]; WT mice,markedly increased
same,PPARα in immunoblot after immunoprecipitation with RXR Ab,[6],increased abundance of PPARα
same,"RXR in immunoblot after immunoprecipitation with PPARα Ab, treated vs control",[6],increased presence of RXR
same,TPP1 (immunofluorescence),[7],significant increase
